From article PMC12479633, “A Phase IIa, Single-Blind, Placebo-Controlled, Parallel-Group Study to Assess Safety, Tolerability, and Pharmacokinetics/Pharmacodynamics of Brensocatib in Adults with Cystic Fibrosis” (Clinical Pharmacokinetics, 2025)

Tests used:
[1] = system: NSP activity (NE, CatG, PR3); assay: Exposure-response of NSP activity reduction (LOESS regression); assay type: in vivo, human; details: particularly in blood
Description: The NSP activity reduction reached a saturation point at approximately 25 mg, as indicated by the plateau of the associated PK measures. The sensitivity of reduction for brensocatib was greatest for CatG, followed by NE, and PR3 (Fig. 6).

[2] = set-up: method as in PMID 39574348; details: single dose, cited from earlier work

For Cn1c(=O)oc2ccc(-c3ccc(C[C@@H](C#N)NC(=O)[C@@H]4CNCCCO4)cc3)cc21 [Brensocatib], the “dose at which NSP activity reduction reached a saturation point” value [1] is given as “approximately 25 mg”, the tolerability ([2]; adults with varying degrees of renal impairment) is given as “well tolerated” and the “effect of renal impairment on brensocatib elimination and exposure” value [2] is given as “not significantly affected”.
